Each structure is given as a SMILES string. In brackets after ≈: the same amount, converted by molar mass. Entries after “also recorded” stand apart in the source; their conditions may differ. Where two headings read alike, the source gives them in different places. Some results are limits rather than exact numbers.

For series [1], the system named is ATP level in BCG cultures. It is filed as cell-based, M. bovis BCG. Particulars: for ATP[M] levels, single time-point and time-course experiments: all time-points tested.
The subject of series [2] is mycolic acid synthesis in BCG. It counts as cell-based, M. bovis BCG. As to conditions: BCG early log phase, 100 μg/ml, 10 minutes post exposure.
For series [3], the system named is atpF (Rv1306) and hsp (Rv0251c). It counts as cell-based, M. bovis BCG. Particulars: BCG treated overnight.
The subject of another series is M. tuberculosis H37Rv. The experiment in a line: BACTEC radiometric growth procedure, activity in the presence of ethanol. It is filed as cell-based, Mycobacterium tuberculosis (H37Rv). Particulars: for potentiation of growth inhibition by ethanol: 0.05% ethanol, M. tuberculosis; for MIC: Mycobacterium tuberculosis, H37RV, M. tuberculosis H37Rv, BACTEC.
For series [4] the following is noted: cited from earlier work.
In series [5] the test system is b-subunit and hsp homologs. As to the kind of experiment: 2-dimensional protein profiles of OSA-treated M. smegmatis. It counts as cell-based. The protocol:
Protein assays: mycobacteria and cultures. Either DMSO (diluent), OSA. (6.25 and 100 μg/ml), cerulenin (24 μg/ml) or isoniazid (1.0 μg/ml) were added to 20 ml control and treated cultures, respectively. Following additional incubation for 24 hours under the same conditions, 2 ml aliquots of cells were harvested by centrifugation (13,000× g for 30 seconds), the supernatant removed, and the process repeated once using 1×PBS. The cellular contents of each tube were divided into 2 to 3 Eppendorfs (roughly 3 to 5 OD units per tube), and 250 μl of a lysis solution containing 3M urea (Sigma), 0.5% Triton X-100 (Sigma), […] dithiothreitol (DTT) (Gibco BRL, Life Technologies, Gaithersburg, Md.) and […] Pharmalyte (Pharmacia Biotech, Piscataway, N.J.) was added. Subsequently, phenylmethylsulfonyl fluoride (PMSF) (Sigma) (100 μg/ml) and leupeptin (2 μg/ml) (Sigma) were also added. Mixtures containing cells and lysis solution were beadbeaten at maximum speed for 60 seconds in a Biospec Mini-8 beadbeater using 200-300 μm glass beads (Sigma). This process was repeated twice per sample with 30-second intervals on ice between agitations. […] Protein concentration was determined using a standardized colorimetric assay (Coomassie Plus, Pierce, Rockford, Ill.) and BSA standards (Pierce) in a Shimadzu UC-1201 spectrophotometer. Quantitated samples were aliquoted and frozen at −70° C. […]

Another series has as its system M. smegmatis. As to conditions: concentrations up to 100 μg/ml; previously reported; cited from earlier work.
In series [6] the test system is mycolic acid synthesis in BCG. As to conditions: previously reported; cited from earlier work.
A further series relates to BCG. The experiment in a line: MIC in BCG. It counts as cell-based, M. bovis BCG. As to conditions: Mycobacterium tuberculosis variant bovis BCG.
Where [7] appears, read: 5 minutes post-exposure, 16× MIC or stated inhibitor concentration.

As to `C=C(C)[C@H]1Cc2c(ccc3c2O[C@@H]2COc4cc(OC)c(OC)cc4[C@@H]2C3=O)O1` [rotenone], the “effect on ATP level versus untreated BCG” value in series [1] was “No appreciable decrease”.
Regarding `NNC(=O)c1ccncc1` [INH, isoniazid], in series [1] (setting [7]), the “effect on ATP level versus untreated BCG” value is “no appreciable difference”.
Take `O=C(CC(=O)C(F)(F)F)c1cccs1` [TTFA, thenoyltrifluoroaceton]: in [2], the “decrease in total mycolic acid levels compared to untreated controls” value (“decrease in total mycolic acid levels” below) is given as 46%. The “effect on ATP level versus untreated BCG” value in [1] (setting [7]) is given as “only a moderate decrease”.
Consider `CCCCCCCCS(=O)(=O)CC(N)=O` [OSA, n-octanesulfonylacetamide], for which the “level of hsp expression by RT-PCR” value in series [3] is reported as “marked increase”. Moreover, the “decrease in total mycolic acid levels” value in series [2] turned out to be 43%. In the series with M. tuberculosis H37Rv, the “potentiation of growth inhibition by ethanol” value was “potentiated”. For the same molecule, the MIC with M. tuberculosis H37Rv (with 0.05% ethanol) is less than 1.5 mg/L; with M. tuberculosis H37Rv (without ethanol, read-out: MIC) it was 6.25 mg/L; with BCG, 6.25 mg/L (≈ 26.6 µM). The limit of solubility in series [4] was 0.1 mg/mL. For the same molecule, the “overexpression of hsp and b-subunit homologs” value in [5] was “no proteins consistent with these molecular weights or pI's were overexpressed; also recorded: neither protein was overexpressed”. The “susceptibility of M. smegmatis” value in the series with M. smegmatis is reported as “intrinsically resistant”. In series [1] (setting [7]), the “effect on ATP level versus untreated BCG” value is listed as “significantly decreased”. The “reduction in ATP[M] versus untreated controls” value in [1] (BCG, 100 μg/ml, 24 hours) was 85%; in series [1] (BCG, 100 μg/ml, three hours) it was 54%. In addition, in series [1] (BCG, 100 μg/ml, one hour post exposure), the “decrease in ATP[M] level versus untreated controls” value was found to be 46%. Also, the “ATP[M] levels, single time-point and time-course experiments” value in series [1] (BCG) is given as “decreased significantly”. In addition, the “mycolic acid levels in BCG” value in series [6] is on record as “decreased”.
Consider `[H]/N=C(/N)N[C@H]1[C@H](O)[C@@H](O)[C@H](O[C@@H]2O[C@@H](C)[C@](O)(C=O)[C@H]2O[C@@H]2O[C@@H](CO)[C@H](O)[C@@H](O)[C@@H]2NC)[C@@H](N/C(N)=N\[H])[C@@H]1O` [STR, streptomycin], for which the “potentiation of growth inhibition by ethanol” value in the series with M. tuberculosis H37Rv is “No potentiation”. Further, the “effect on ATP level versus untreated BCG” value in series [1] (setting [7]) was “no appreciable difference”.
Take `C(=NC1CCCCC1)=NC1CCCCC1` [DCCD, dicyclohexylcarbodiimide]: in [2], the “decrease in total mycolic acid levels” value was found to be 79%. The “effect on ATP level versus untreated BCG” value in series [1] (setting [7]) is listed as “statistically significant decrease”. The “decrease in ATP[M] level” value in series [1] (BCG, 100 μg/ml, all timepoints (1, 3, 24 hours)) is 95%. Moreover, the “ATP[M] levels, single time-point and time-course experiments” value in series [1] (BCG) is given as “decreased significantly”.
As to `CO[C@H]1/C=C/O[C@@]2(C)Oc3c(C)c(O)c4c(O)c(c(/C=N/N5CCN(C)CC5)c(O)c4c3C2=O)NC(=O)/C(C)=C\C=C\[C@H](C)[C@H](O)[C@@H](C)[C@@H](O)[C@@H](C)[C@H](OC(C)=O)[C@@H]1C` [RIF, rifampin], the “effect on ATP level versus untreated BCG” value in series [1] (setting [7]) is listed as “no appreciable difference”.
Same read-out and setting: for `CC[C@@H](CO)NCCN[C@@H](CC)CO` [EMB, ethambutol] the value was “no appreciable difference”; for `C/C=C/C/C=C/CCC(=O)[C@H]1O[C@H]1C(N)=O` [cerulenin], “No appreciable decrease”.
`O=c1oc2ccccc2c(O)c1Cc1c(O)c2ccccc2oc1=O` [dicumarol]: the “effect on ATP level versus untreated BCG” value in series [1] (setting [7]) is on record as “No appreciable decrease”.
